Source: patent US10155798B2, “Anti-obesity compounds derived from neuromedin U” (The Regents of the University of California, priority 2013, dated 2018)
Where a SMILES comes first, the peptide text is derived from it. [ ]: non-standard residue; d: D form. The star is where a group is joined. PEG12 = NCCOCCOCCOCCOCCOCCOCCOCCOCCOCCOCCOCCOCCC(=O)O; Oic = O=C(O)[C@@H]1C[C@@H]2CCCC[C@@H]2N1; Palmitoyl = CCCCCCCCCCCCCCCC(=O)*; Aib = CC(C)(N)C(=O)O; Ahx = NCCCCCC(=O)O

Key:
[1] = molecular target: T1, NMUR2 (neuromedin U 2 receptor) (Homo sapiens, UniProt Q9GZQ4); assay: Calcium mobilization assay, HEK-NMU2 cells; assay type: cell-based; conditions: HEK293 cells expressing NMU2 receptor, NA = not active
T1 construct: expressed in transfected cells; host or cells: HEK293 (HEK-NMU2)
T1 sequence (Q9GZQ4 whole entry): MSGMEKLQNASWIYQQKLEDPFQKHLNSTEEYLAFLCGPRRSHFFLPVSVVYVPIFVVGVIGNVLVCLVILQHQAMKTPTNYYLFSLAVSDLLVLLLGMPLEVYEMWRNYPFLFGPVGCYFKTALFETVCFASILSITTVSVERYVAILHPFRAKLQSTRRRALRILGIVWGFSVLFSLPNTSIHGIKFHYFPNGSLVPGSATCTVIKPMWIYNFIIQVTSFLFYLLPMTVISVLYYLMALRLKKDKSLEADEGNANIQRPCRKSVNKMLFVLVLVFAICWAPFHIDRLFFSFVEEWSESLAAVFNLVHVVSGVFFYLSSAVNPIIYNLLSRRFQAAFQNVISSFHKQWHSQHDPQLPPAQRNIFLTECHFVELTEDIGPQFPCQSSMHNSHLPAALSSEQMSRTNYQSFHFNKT
Experimental: To test whether neuromedin U can be modified/derivatized to yield truncated bioactive compound(s) that may be useful as therapeutics, we synthesized a small library (25 peptides) of hNMU analogs utilizing various stabilization protocols, including: cyclization, lipidation, introduction of α,α-disubstituted and N-methylated amino acids, retro-inverso-approach, and combination of such (see Table 1). Subsequently all analogues were tested against human neuromedin U receptors (NMUR1 and NMUR2) in calcium mobilization assay (collaboration with Dr Gary Willars, University of Leicester, UK).
HEK293 cells expressing either the neuromedin U 1 receptor or neuromedin U 2 receptor (HEK-NMU1 and HEK-NMU2 respectively) were grown to approximately 90% confluence in ELISA strip plates (96-well format) pre-coated with poly-D-lysine (0.1% w/v) and loaded for 45 min at 37° C. with 2 iM fluo-4-AM in Krebs'-HEPES buffer with bovine serum albumin (KHB-BSA; composition: 10 mM HEPES; 4.2 mM NaHCO3; 11.7 mM D-glucose; 1.18 mM MgSO4.7H2O; 1.18 mM KH2PO4; 4.69 mM KCl; 118 mM NaCl; 1.3 mM CaCl2.2H2O; 0.1% (w/v) BSA; pH 7.4). Monolayers were then washed and equilibrated for 5 min at 37° C. in 100 il KHB-BSA for subsequent recording of fluorescence as an index of intracellular [Ca^2+] ([Ca^2+]i) using a microplate reader (NOVOstar; BMG LABTECH, Aylesbury, U.K.). Briefly, 20 μl of KHB-BSA, with or without ligand, was added into the well (200 μl/s) and fluorescence determined at 0.5 s intervals by excitation at 485 nm and collection of emitted light at 520 nm. Changes in fluorescence above basal levels (before ligand addition) were determined. […] Fmax was obtained by removal of buffer and addition of KHB-BSA buffer containing 4 mM [Ca^2+] and ionomycin (2 μM) to representative wells and the fluorescence measured for 10 min. Fmin was then derived by replacing buffer with Ca^2+-free KHB-BSA buffer containing 2 mM EGTA and fluorescence measured for 10 min. For the determination of concentration-response relationships, the maximal change in [Ca^2+]i was calculated following ligand addition. Concentration-response curves were then fitted using a four-parameter logistic equation to determine EC50 values (GraphPad Software Inc., Calif.).

[2] = cited from earlier work
[3] = tested on: diet induced obese (DIO) mouse model; assay: Single dose in vivo anorectic experiments in DIO mouse model; conditions: DIO mice; for anorectic activity, single dose: single dose 5344 nMole/kg, FIG. 3A
Excerpt: FIG. 3. Single dose in vivo experiments performed in DIO mouse model. (A) Comparison of anorectic effects of NM4 and NM7. (B) NM4 dose response experiments. (C) Comparison of NM4 and NM4A anorectic activity.
Initially we focused on single dose experiments comparing NM4 and NM7 at 5344 nMole/kg dose (FIG. 3).

Molecule: CC(C)C[C@H](NC(=O)[C@H](Cc1ccccc1)NC(=O)C(C)(C)N)C(=O)N[C@@H](Cc1ccccc1)C(=O)N[C@@H](CCCNC(=N)N)C(=O)N1CCC[C@H]1C(=O)N[C@@H](CCCNC(=N)N)C(=O)N[C@@H](CC(N)=O)C(=O)NC(C)(C)C(N)=O [Peptide M5, Aib-FL-Phe-Arg-Pro-R-Asn-Aib] (H-[Aib]FLFRPRN[Aib]-NH2)
- EC50 [1]: 50.1 ± 16.2 nM

Molecule: semaglutide
- plasma half-life ([2]; in vivo): 160 h

Molecule: CC(C)C[C@H](NC(=O)[C@H](Cc1ccccc1)NC(=O)CCCCCNC(=O)[C@@H](N)CS)C(=O)N[C@@H](Cc1ccccc1)C(=O)N[C@@H](CCCNC(=N)N)C(=O)N1[C@H](C(=O)N[C@@H](CCCNC(=N)N)C(=O)N[C@@H](CC(N)=O)C(=O)NCCCCCC(=O)N[C@@H](CS)C(N)=O)C[C@@H]2CCCC[C@@H]21 [NM9, C-Ahx-FL-Phe-Arg-Oic-R-Asn-Ahx-C] (H-C[Ahx]FLFR[Oic]RN[Ahx]C-NH2)
- EC50 [1]: 708 ± 171 nM

Molecule: CC(C)C[C@H](NC(=O)[C@H](Cc1ccccc1)NC(=O)CCCCCNC(=O)[C@@H](N)CS)C(=O)N[C@@H](Cc1ccccc1)C(=O)N[C@@H](CCCNC(=N)N)C(=O)N1CCC[C@H]1C(=O)N[C@@H](CCCNC(=N)N)C(=O)N[C@@H](CC(N)=O)C(=O)NCCCCCC(=O)N[C@@H](CS)C(N)=O [Peptide M8, C-Ahx-FL-Phe-Arg-Pro-R-Asn-Ahx-C] (H-C[Ahx]FLFRPRN[Ahx]C-NH2)
- EC50 [1]: 240 ± 35.7 nM

Molecule: CCCCCCCCCCCCCCCC(=O)NCCOCCOCCOCCOCCOCCOCCOCCOCCOCCOCCOCCOCCC(=O)NC(C)(C)C(=O)N[C@@H](Cc1ccccc1)C(=O)N[C@@H](CC(C)C)C(=O)N[C@@H](Cc1ccccc1)C(=O)N[C@@H](CCCNC(=N)N)C(=O)N1CCC[C@H]1C(=O)N[C@@H](CCCNC(=N)N)C(=O)N[C@@H](CC(N)=O)C(=O)NC(C)(C)C(N)=O [Peptide M7, Pal-dPEG12-Aib-FL-Phe-Arg-Pro-R-Asn-Aib] ({Palmitoyl-PEG12}-[Aib]FLFRPRN[Aib]-NH2; N-terminus and C-terminus assumed)
- anorectic activity, single dose [3]: very limited activity in vivo

Molecule: CC(=O)N[C@@H](Cc1ccccc1)C(=O)N[C@@H](CC(C)C)C(=O)N[C@@H](Cc1ccccc1)C(=O)N[C@@H](CCCNC(=N)N)C(=O)N1CCC[C@H]1C(=O)N[C@@H](CCCNC(=N)N)C(=O)N[C@@H](CC(N)=O)C(N)=O [Peptide M1, Ac-FL-Phe-Arg-Pro-R-Asn] (Ac-FLFRPRN-NH2)
- EC50 [1]: 0.6 ± 0.19 nM

Molecule: CCCCCCCCCCCCCCCC(=O)NCCOCCOCCOCCOCCOCCOCCOCCOCCOCCOCCOCCOCCC(=O)NC(C)(C)C(=O)N[C@@H](Cc1ccccc1)C(=O)N[C@@H](CC(C)C)C(=O)N[C@@H](Cc1ccccc1)C(=O)N[C@@H](CCCNC(=N)N)C(=O)N1CCC[C@H]1C(=O)N[C@@H](CCCNC(=N)N)C(=O)N[C@@H](CC(N)=O)C(N)=O [Peptide M4, Pal-dPEG12-Aib-FL-Phe-Arg-Pro-R-Asn] ({Palmitoyl-PEG12}-[Aib]FLFRPRN-NH2)
- EC50 [1]: 1.7 ± 0.29 nM
- anorectic activity, single dose [3]: significant anorectic activity
- dose dependence of anorectic effects ([3]; single dose, FIG. 3B): dose-dependent

Molecule: CC(C)C[C@H](NC(=O)[C@H](Cc1ccccc1)NC(=O)C(C)(C)N)C(=O)N[C@@H](Cc1ccccc1)C(=O)N[C@@H](CCCNC(=N)N)C(=O)N1CCC[C@H]1C(=O)N[C@@H](CCCNC(=N)N)C(=O)N[C@@H](CC(N)=O)C(N)=O [Peptide M2, Aib-FL-Phe-Arg-Pro-R-Asn] (H-[Aib]FLFRPRN-NH2)
- EC50 [1]: 0.21 ± 0.07 nM

Molecule: CC(C)C[C@H](NC(=O)[C@H](Cc1ccccc1)NC(=O)[C@H](Cc1ccc(O)cc1)NC(=O)CNC(=O)[C@H](CCCNC(=N)N)NC(=O)[C@H](CO)NC(=O)[C@H](CCC(N)=O)NC(=O)[C@H](CO)NC(=O)[C@H](C)NC(=O)[C@H](Cc1ccccc1)NC(=O)[C@@H]1CCCN1C(=O)[C@H](CO)NC(=O)[C@H](CCC(N)=O)NC(=O)[C@H](Cc1ccccc1)NC(=O)[C@H](CCC(=O)O)NC(=O)[C@H](CCC(=O)O)NC(=O)[C@H](CC(=O)O)NC(=O)[C@@H](NC(=O)[C@H](CCCNC(=N)N)NC(=O)[C@@H](N)Cc1ccccc1)C(C)C)C(=O)N[C@@H](Cc1ccccc1)C(=O)N[C@@H](CCCNC(=N)N)C(=O)N1CCC[C@H]1C(=O)N[C@@H](CCCNC(=N)N)C(=O)N[C@@H](CC(N)=O)C(N)=O [hNMU, FRVDEEFQSPFASQSRGY-FL-Phe-Arg-Pro-R-Asn, reference compound] (H-FRVDEEFQSPFASQSRGYFLFRPRN-NH2)
- EC50 [1]: 0.49 ± 0.13 nM

Molecule: Neuromedin U (FRVDEEFQSPFASQSRGYFLFRPRN) [NMU]
- half-life after subcutaneous (sc) injection ([2]; subcutaneous injection): less than 5 min

Molecule: CCCCCCCCCCCCCCCC(=O)NC(C)(C)C(=O)N[C@@H](Cc1ccccc1)C(=O)N[C@@H](CC(C)C)C(=O)N[C@@H](Cc1ccccc1)C(=O)N[C@@H](CCCNC(=N)N)C(=O)N1CCC[C@H]1C(=O)N[C@@H](CCCNC(=N)N)C(=O)N[C@@H](CC(N)=O)C(N)=O [Peptide M3, Pal-Aib-FL-Phe-Arg-Pro-R-Asn] (Palmitoyl-[Aib]FLFRPRN-NH2)
- EC50 [1]: 170 ± 34.9 nM
